According to patent US6127382A, “Amines substituted with a tetrahydroquinolinyl group an aryl or heteroaryl group and an alkyl group, having retinoid-like biological activity” (Allergan Sales, Inc., priority 1999, dated 2000):

Columns and labels:
RARα = biological target: T1, RARα (Homo sapiens, UniProt P10276); test: ligand binding assay, RARα; conditions: read-out: RAR Bind Ki α
T1 sequence (P10276 1-462): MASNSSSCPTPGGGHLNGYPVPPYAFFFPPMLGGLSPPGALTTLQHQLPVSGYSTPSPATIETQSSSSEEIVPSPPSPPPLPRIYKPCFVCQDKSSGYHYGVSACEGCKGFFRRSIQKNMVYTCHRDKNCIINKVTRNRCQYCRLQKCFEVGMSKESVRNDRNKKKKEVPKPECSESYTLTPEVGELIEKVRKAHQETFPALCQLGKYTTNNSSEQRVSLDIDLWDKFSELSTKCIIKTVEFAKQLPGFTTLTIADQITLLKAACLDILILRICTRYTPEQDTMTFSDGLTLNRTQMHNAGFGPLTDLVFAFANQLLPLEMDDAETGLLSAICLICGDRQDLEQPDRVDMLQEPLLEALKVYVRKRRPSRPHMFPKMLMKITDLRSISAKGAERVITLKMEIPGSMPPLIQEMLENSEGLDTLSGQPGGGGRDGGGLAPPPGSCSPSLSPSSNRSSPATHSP
Excerpt: (§1) Other assays described below, measure the ability of the compounds of the present invention to bind to, and/or activate various retinoid receptor subtypes. When in these assays a compound binds to a given receptor subtype and activates the transcription of a reporter gene through that subtype, then the compound is considered an agonist of that receptor subtype. […] In the below described assays the ability of the compounds to bind to RARα, RARβ, RARγ, RXRα, RXRβ and RXRγ receptors, and the ability or inability of the compounds to activate transcription of a reporter gene through these receptor subtypes can be tested. […] However, some of the compounds of the invention may behave as retinoid antagonists or partial antagonists and/or as inverse agonists. Because of the complex distribution of the different retinoid receptors in various organs of the mammalian body partial agonists and partial antagonists and compounds which have the characteristics of both may lend themselves to particularly useful therapeutic applications and may avoid serious side effects of conventional retinoid drugs.
(§2) A holoreceptor transactivation assay and a ligand binding assay which measure the antagonist/agonist like activity of the compounds of the invention, or their ability to bind to the several retinoid receptor subtypes, respectively, are described in published PCT Application No. WO WO93/11755 (particularly on pages 30-33 and 37-41) published on Jun. 24, 1993, the specification of which is also incorporated herein by reference. A detailed experimental procedure for holoreceptor transactivations has been described by Heyman et al. Cell 68, 397-406, (1992); Allegretto et al. J. Biol. Chem. 268, 26625-26633, and Mangelsdorf et al. The Retinoids: Biology, Chemistry and Medicine, pp 319-349, Raven Press Ltd., New York, which are expressly incorporated herein by reference. The results obtained in this assay are expressed in EC50 numbers, as they are also in the chimeric receptor transactivation assay. The results of ligand binding assay are expressed in Kd numbers. (See Cheng et al. Biochemical Pharmacology Vol. 22 pp 3099-3108, expressly incorporated herein by reference.)
(§3) Table 1 discloses the activity of certain exemplary compounds of the invention in the above-described chimeric receptor transactivation assay, holoreceptor transactivation assay and a ligand binding assays. Particularly, the transactivation data pertaining to RAR receptors were obtained in the chimeric assay, and the data pertaining to transactivation of RXR receptors were obtained in the holoreceptor transactivation assay.

RARβ = biological target: T2, RARβ (Homo sapiens, UniProt P10826); test: ligand binding assay, RARβ; conditions: read-out: RAR Bind Ki β
T2 sequence (P10826 1-448 isoform P10826-2): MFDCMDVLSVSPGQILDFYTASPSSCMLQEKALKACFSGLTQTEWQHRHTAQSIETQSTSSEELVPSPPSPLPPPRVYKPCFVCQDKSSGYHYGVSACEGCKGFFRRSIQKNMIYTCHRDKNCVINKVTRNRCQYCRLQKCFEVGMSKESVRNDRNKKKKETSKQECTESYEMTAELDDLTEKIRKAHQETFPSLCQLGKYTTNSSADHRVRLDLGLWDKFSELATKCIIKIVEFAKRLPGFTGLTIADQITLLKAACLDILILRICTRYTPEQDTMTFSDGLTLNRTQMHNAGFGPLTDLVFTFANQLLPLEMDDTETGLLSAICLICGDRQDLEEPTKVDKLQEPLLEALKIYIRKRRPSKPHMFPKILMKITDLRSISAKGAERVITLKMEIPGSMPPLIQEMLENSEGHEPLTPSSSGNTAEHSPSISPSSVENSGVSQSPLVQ
Excerpt: as §1, §2, §3

RARγ = biological target: T3, RARγ (Homo sapiens, UniProt P13631); test: ligand binding assay, RARγ; conditions: read-out: RAR Bind Ki γ
T3 sequence (P13631 1-454): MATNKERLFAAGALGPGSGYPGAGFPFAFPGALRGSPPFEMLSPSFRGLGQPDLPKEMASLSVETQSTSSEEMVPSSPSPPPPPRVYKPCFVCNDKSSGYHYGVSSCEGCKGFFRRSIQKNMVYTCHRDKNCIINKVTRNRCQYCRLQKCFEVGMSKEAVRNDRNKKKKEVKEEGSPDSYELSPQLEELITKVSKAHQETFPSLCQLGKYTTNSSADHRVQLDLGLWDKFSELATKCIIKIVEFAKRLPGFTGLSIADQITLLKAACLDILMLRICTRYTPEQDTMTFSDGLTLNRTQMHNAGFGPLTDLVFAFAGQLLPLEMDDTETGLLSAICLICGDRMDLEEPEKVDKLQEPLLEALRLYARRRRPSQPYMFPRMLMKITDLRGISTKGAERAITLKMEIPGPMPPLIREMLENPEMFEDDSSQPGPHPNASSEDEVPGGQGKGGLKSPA
Excerpt: as §1, §2, §3

RXRα = biological target: T4, RXRα (Homo sapiens, UniProt P19793); test: ligand binding assay, RXRα; conditions: read-out: RXR Bind Ki α
T4 construct: expressed in transfected cells
T4 sequence (P19793 1-462): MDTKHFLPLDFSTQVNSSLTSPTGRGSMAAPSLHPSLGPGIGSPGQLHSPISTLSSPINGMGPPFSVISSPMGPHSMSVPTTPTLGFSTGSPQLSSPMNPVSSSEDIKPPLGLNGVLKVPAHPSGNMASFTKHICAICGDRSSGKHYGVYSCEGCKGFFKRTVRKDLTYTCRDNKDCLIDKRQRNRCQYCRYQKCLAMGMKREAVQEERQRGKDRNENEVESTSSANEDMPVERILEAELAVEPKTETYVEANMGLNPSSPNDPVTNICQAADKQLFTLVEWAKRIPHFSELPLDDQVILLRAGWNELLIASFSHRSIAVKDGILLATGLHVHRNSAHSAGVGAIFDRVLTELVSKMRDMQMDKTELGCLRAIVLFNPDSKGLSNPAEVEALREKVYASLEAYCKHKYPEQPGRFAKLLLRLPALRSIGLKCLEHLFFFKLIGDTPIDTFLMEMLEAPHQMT
Excerpt: as §1, §2, §3

RXRγ = biological target: T5, RXRγ (Homo sapiens, UniProt P48443); test: ligand binding assay, RXRγ; conditions: read-out: RXR Bind Ki γ
T5 sequence (P48443 1-463): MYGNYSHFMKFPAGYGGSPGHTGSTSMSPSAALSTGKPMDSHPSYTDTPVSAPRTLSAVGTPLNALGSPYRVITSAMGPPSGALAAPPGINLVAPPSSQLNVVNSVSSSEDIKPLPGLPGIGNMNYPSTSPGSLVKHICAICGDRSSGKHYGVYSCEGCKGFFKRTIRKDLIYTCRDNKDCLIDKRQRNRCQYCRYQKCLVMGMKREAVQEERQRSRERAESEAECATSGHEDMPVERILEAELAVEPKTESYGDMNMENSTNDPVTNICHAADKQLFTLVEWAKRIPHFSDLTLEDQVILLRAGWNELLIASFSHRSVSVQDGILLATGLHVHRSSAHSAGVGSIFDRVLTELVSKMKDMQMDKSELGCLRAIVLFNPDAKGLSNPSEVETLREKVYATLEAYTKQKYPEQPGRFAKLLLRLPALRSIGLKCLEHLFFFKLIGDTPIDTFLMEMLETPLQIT
Excerpt: as §1, §2, §3

ornithine decarboxylase = conditions: literature; cited from earlier work

SMILES	Ki (RARα)	Ki (RARβ)	Ki (RARγ)	Ki (RXRα)	Ki (RXRγ)	inhibition of induction of ODC activity by TPA (ornithine decarboxylase)
CC(C)N1C(=O)CC(C)(C)c2cc(N(C)c3ccc(C(=O)O)cc3)ccc21 [Compound 5, 4-[(1-Isopropyl-4,4-dimethyl-2-oxo-1,2,3,4-tetrahydroquinolin-6-yl)methylamino]benzoic Acid]	> 30 µM	> 30 µM	> 30 µM	56 µM	> 100 µM	–
CC1=C(/C=C/C(C)=C/C=C/C(C)=C/C(=O)O)C(C)(C)CCC1 [Retinoic acid, retinoic acid]	–	–	–	–	–	inhibits this induction of ODC activity by TPA
